≈ marks a conversion by molar mass, not a printed value. Where “and” joins values, the source holds several entries; their conditions need not be identical. Equal values may be shown once.
Columns and labels:
[1] = Rectal body temperature; assay type: in vivo, rat; settings: for BODY TEMP., day of exper., 13′ post appl.: mean (X)
Procedure: Female Wistar rats (Harlan-Winkelmann, Borchen, Germany) were obtained at an age of 11-12 weeks (body weight 180-200 g). Female rats were employed because they are known to eliminate drugs less rapidly than do males, which was thought to be an advantage for drug potency studies. Rats were kept separately in plastic cages at controlled temperature (23° C.) and humidity (about 50 %) with a 12-h light cycle beginning at 7 a.m. They received standard diet (Altromin; Lage, F.R.G.), tap water and libitum. All drug injections were done in the afternoon at an ambient temperature of 23-25° C. The regular protocol started by taking the rats out of their individual cage, weighing them and joining them together on a table with six open plastic cages for better behavioral observations. Therefore animals were able to move from one cage to another and either to have social contact or to avoid it. After a short adaptation time of approximately 15 minutes, rectal body temperatures were recorded followed by drug or vehicle application.
(§1) Tests included open field observations, rotarod test and body temperature. Tests were always performed in the same manner in control and drug experiments at two different times, just before application of drug or vehicle and 13 minutes after application.
(§2) In addition to these quantitative estimations of neurological deficit, behavioral alterations observed after administration of 2-propyl-4-hexynoic acid and valproate noted in the cage and by placing the animals in an open field of 90-100 cm diameter. Muscle tone was estimated by palpation of the abdomen. The extent of deficits in behavior after administration of the compounds was determined by a rating system (Loscher et al. 1987). In short, animals were taken out of the cage, placed in an open field, observed for about 1 minute and rated separately for ataxia, abducted hindlimbs, reduced righting, flat body posture, circling, Straub tail, piloerection, hypolocomotion and hyperlocomotion (abdominal muscle tone was evaluated by palpation at the end of the period of observation). All other parameters except ataxia were scored from 0 to 3: 0-absent; 1-equivocal; 2-present; 3- intense. For ataxia (06): 1 -slight ataxia in hind-legs (tottering of the hind quarters); 2-more pronounced ataxia with dragging of hind legs; 3-further increase of ataxia and more pronounced dragging of hind legs; 4-marked ataxia, animals lose balance during forward locomotion; 5- very marked ataxia with frequent loss of balance during forward locomotion; 6-permanent loss of righting reflexes, but animal still attempts to move forward. Rectal body temperature was measured by an electronic thermometer. Body weight of the animals was recorded once daily before drug injection. Significance of differences in behavior between pre-drug and post-drug data determined in the same group of animals was calculated by the Wilcoxon signed rank test for paired replicates and for body temperature by Student's paired t-test (SigmaStat for Windows, version 1.0). Differences in body temperature were always compared only within the experimental day with the pre-drug time as control to one post-drug time.

[2] = Rotarod test (neurological deficit) in kindled rats; assay type: in vivo, rat
Procedure: as §1
The rotarod test was carried out with a rod of 6 cm diameter and rotation speed of 8 r.p.m. Neurological deficit was indicated by inability of the animals to maintain their equilibrium for at least 1 min on the rotating rod. Rats had to be trained prior to drug experiments to maintain their balance on the rod. After drug or vehicle treatment, rats which were not able to maintain their equilibrium on the rod for 1 minute were put again on the rod twice.

[3] = Open field observation, behavioral rating of adverse effects; assay type: in vivo, rat; settings: for antaxia (1-6) / hypolocomotion (1-3) / muscle relaxation (1-3): 13′ after application, mean (X)
Procedure: as §1, §2

[4] = Drug solubility test; assay type: physicochemical; settings: read-out: concentration in drug solubility test
[5] = Plasma drug levels after treatment and kindling stimulation; assay type: in vivo, rat; settings: same dose of both drugs, immediately after treatment and kindling stimulation; for Plasma Drug Levels, Average: average of 8 rats; for Plasma Drug Levels, individual rats: each line one rat (784-793)
Excerpt: Since there were differences in potencies between both compounds, plasma was obtained from rats immediately after treatment and kindling stimulation during one dose experiment.

[6] = doses 50, 75, 100, 200 mg/kg i.p.
[7] = 50 mg/kg i.p., 13′ after application
[8] = 75 mg/kg i.p., 13′ after application
[9] = 200 mg/kg i.p., listed as valproate

SMILES: CC#CCC(CCC)C(=O)O (stereo not drawn) [2-propyl-4-hexynoic acid, 2-n-propyl-4-hexynoic acid]
- BODY TEMP., day of exper., 13′ post appl. ([1]; 50 mg/kg i.p.): 38.48 °C
- BODY TEMP., day of exper., 13′ post appl. ([1]; 75 mg/kg i.p.): 38.49 °C
- BODY TEMP. (° C.) day of exper. 13′ post appl. ([1]; 200 mg/kg, 13′ post appl., mean of 8 rats, ante appl. 38.68): 37.94 °C
- body-temperatures, in words [1, 6]: maintained within the physiological range
- rotarod-test, day of exper. [2, 7]: 0%
- rotarod-test, day of exper. [2, 8]: 0%
- rotarod-test, day of exper. ([2]; 200 mg/kg, 13′, all 8 animals +): 0%
- rotarod-test, in words [2, 6]: performed successfully by all individuals
- antaxia (1-6) ([3]; 200 mg/kg i.p.): 1.5 score
- hypolocomotion (1-3) ([3]; 200 mg/kg i.p.): 1.4 score
- muscle relaxation (1-3) ([3]; 200 mg/kg i.p.): 1.4 score
- BEHAVIOR (score) antaxia (1-6) ([3]; 200 mg/kg, 13′, mean of 8 rats): 1.50 score
- BEHAVIOR (score) hypolocomotion (1-3) ([3]; 200 mg/kg, 13′, mean of 8 rats): 1.38 score
- BEHAVIOR (score) muscle relaxation (1-3) ([3]; 200 mg/kg, 13′, mean of 8 rats): 1.38 score
- BEHAVIOR (score) red. righting (1-3) ([3]; 200 mg/kg, 13′, mean of 8 rats): 0.75 score
- adverse effects, in words [3, 6]: only observed at the highest dose of 200 mg/kg and were milder than with valproate
- solubility [4]: 18.5 mg/mL (≈ 120 mM)
- Plasma Drug Levels, Average [5]: 198.37 µg/mL
- Plasma Drug Levels, individual rats [5]: 209.31 µg/mL and 201.34 µg/mL and 218.87 µg/mL and 154.89 µg/mL and 220.70 µg/mL and 180.10 µg/mL and 170.68 µg/mL and 225.95 µg/mL

SMILES: CCCC(CCC)C(=O)O [Valproate, valproic acid]
- BODY TEMP., day of exper., 13′ post appl. ([1]; 50 mg/kg i.p.): 38.82 °C
- BODY TEMP., day of exper., 13′ post appl. ([1]; 75 mg/kg i.p.): 38.55 °C
- alterations in body-temperature, in words ([1]; 100 mg/kg i.p.): No alterations
- BODY TEMP., day of exper., 13′ post appl. ([1]; 100 mg/kg i.p.): 38.97 °C
- BODY TEMP., day of exper., 13′ post appl. ([1]; 200 mg/kg i.p.): 39.18 °C
- BODY TEMP., day of exper., 13′ post appl. [1, 9]: 39.2 °C
- rotarod-test, day of exper. [2, 7]: 0%
- rotarod-test, day of exper. [2, 8]: 0%
- rotarod test, in words ([2]; 100 mg/kg i.p.): performed without failure
- rotarod-test, day of exper. ([2]; 100 mg/kg i.p., 13′ after application): 0%
- rotarod test, in words ([2]; 200 mg/kg i.p.): performed without failure
- rotarod-test, day of exper. ([2]; 200 mg/kg i.p., 13′ after application): 0%
- alterations in behavior, in words ([3]; 100 mg/kg i.p.): No alterations
- further adverse effects, in words ([3]; 200 mg/kg i.p.): wet dog shakes
- antaxia (1-6) ([3]; 200 mg/kg i.p.): 2.75 score
- hypolocomotion (1-3) ([3]; 200 mg/kg i.p.): 1.00 score
- muscle relaxation (1-3) ([3]; 200 mg/kg i.p.): 2.00 score
- antaxia (1-6) [3, 9]: 2.8 score
- hypolocomotion (1-3) [3, 9]: 1.0 score
- muscle relaxation (1-3) [3, 9]: 2.0 score
- solubility [4]: 20 mg/mL (≈ 139 mM)
- Plasma Drug Levels, Average [5]: 182.26 µg/mL
- Plasma Drug Levels, individual rats [5]: 197.82 µg/mL and 189.87 µg/mL and 168.89 µg/mL and 173.37 µg/mL and 205.44 µg/mL and 174.06 µg/mL and 157.83 µg/mL and 190.82 µg/mL
